Details: in vivo

## N#CC(O)c1ccccc1 (stereo not shown) [mandelonitrile]
  times less toxic than sodium cyanide: approximately 18 times
